Data reported in US7923984B2, “Universal, wireless, nano-optical voltmeters” (The Regents of the University Of Michigan, priority 2007, dated 2011).
Counter-ions that a name gives are not always drawn.

Columns and labels:
[1] = system: mitochondrial membrane E field in DITNC astrocytes; test: CCCP challenge of mitochondrial membrane E field in DITNC astrocytes measured by E-PEBBLEs; type: cell-based, rat; settings: CCCP 12.2 μM added at 3 min 40 s
Method: Mitochondrial membrane and cytosol potentials were measured as follows. Immortalized rat (DITNC) astrocytes with autoflourescent mitochondria (American Type Culture Collection, Manassas, Va.) were plated on to glass cover slips at a concentration of ˜2×10^5 cells/mL. Cells were incubated in Dulbecco's Modified Eagle Medium (DMEM) supplemented with 10% fetal bovine serum and 1% penicillin/streptomycin (Invitrogen, Carlsbad, Calif.) overnight. The media was then removed and replaced with fresh media. […] The cover slip was rinsed with Hank's Balanced Salt Solution (HBSS) (Invitrogen, Carlsbad, Calif.) containing 10 mmol N-2-Hydroxyethylpiperazine-N′-2-Ethane Sulfonic Acid (HEPES) and placed in a stainless steel cell chamber with 1 mL HBSS containing 10 mmol HEPES. In some cases, tetramethylrhodamine methyl ester (TMRM) (Molecular Probes, Eugene, Oreg.) dissolved in dimethyl sulfoxide (DMSO) was added to the chamber for a total concentration of ˜50 nM to confirm mitochondrial fluorescence.
The entire chamber was mounted on a confocal microscope at room temperature (Olympus IX70 connected to a Life Science Resources UltraView equipped with an Ar—Kr laser and a Lambda 10-2 Sutter wheel from Sutter Instrument Co. Novato, Calif.) and examined with a 60× objective connected to a Z series motor. Four Z stacks were taken 1 minute apart, starting with time zero. […] Slices analyzed were ˜3-4 microns into the cell as measured from the bottom of the cell. […]
Cellular image analysis was performed as follows. Images of specific focal planes were transferred to the MetaMorph image analysis package and regions of interest (ROI) chosen consistent with TMRM-induced mitochondrial fluorescence, or the autofluorescent mitochondria of the astrocytes. […] The average pixel intensity was determined for each ROI, and the emission ratio of the 525:700 nm images was then calculated. In some cases, the emission ratio of 600:700 nm was calculated. […] For the TMRM channel, the average pixel intensity was recorded. […]

[2] = system: astrocytes, mitochondrial and microfilament regions; test: CCCP challenge of mitochondrial and microfilament regions in astrocytes; type: cell-based; settings: CCCP at 3 min 45 sec
Method: Microfilaments in astrocytes. Astrocytes were co-incubated with E-PEBBLEs and alexafluor-phalloidin (a microfilament stain). The fluorescence arising from the mitochondria, E-PEBBLEs, and microfilaments were able to be resolved though use of different fluorescent emission filters.
The cells were challenged with CCCP at 3 min 45 sec using normal experimental parameters, as described in Example 7.

[3] = system: mitochondrial membrane E field in C6 glioma cells; test: CCCP depolarization of mitochondria in C6 gliomas monitored by NOV; type: cell-based, Mouse; settings: CCCP total concentration 10 μM
Method: Depolarization, comparison with TMRM, and cytosol measurements were performed as follows. Mouse C6 glioma cells were plated on to glass cover slips at a concentration of approximately 2.5×10^5 cells/mL. Cells were incubated in DMEM supplemented with 10% FBS and 1% p/s overnight. The media was then removed and replaced with fresh media. NOVs were added to the suspension (125-250 μg particles) and the cells incubated for 30 minutes. The cover slip was rinsed with HBSS containing 10 mmol N-2-Hydroxyethylpiperazine-N′-2-Ethane Sulfonic Acid (HEPES) and placed in a stainless steel cell chamber with 1 mL HBSS containing 10 mmol HEPES. […]
Image analysis was performed as follows. Images were transferred to the MetaMorph image analysis package and regions of interest chosen consistent with TMRM-induced mitochondrial fluorescence, or the autofluorescent mitochondria of the astrocytes. […] The average pixel intensity ratio of the 600 nm image versus the 700 nm image was then calculated. For the TMRM channel, the average pixel intensity was recorded.
CCCP depolarization was performed as follows. […] A region of interest was first determined in Metamorph by the punctuated bright areas that indicated mitochondria through TMRM localization. The emission ratio was then determined at the measurement time points. […]

[4] = system: mitochondrial membrane E field in DITNC astrocytes; test: Repeated CCCP depolarizations in astrocytes measured by E-PEBBLEs; type: cell-based, rat; settings: 3.1 μM at 3 min 50 s, second dose at 33 min 50 s; 600:700 nm ratio
Method: Repeated depolarizations of mitochondrial membrane potentials were performed as follows. Astrocytes were prepared as described above. Z series of Images were taken every minute for 15 minutes and every 5 minutes thereafter for 30 minutes. At time 3 minutes 50 sec, 1 μL of a CCCP solution (3.1 mM dissolved in DMSO and HBSS with HEPES; concentration in chamber was 3.1 μM) was added to the chamber. Starting at the 30 minute time point, images were again taken every minute until the 45 minute time point and every five minutes thereafter until the 60 minute time point. At time 33 minutes 50 seconds, a second dose of CCCP (3.1 mM) was added. The final concentration in the cell chamber for CCCP was 6.1 μM.
Cellular image analysis was performed as follows. Images of specific focal planes were transferred to the MetaMorph image analysis package and regions of interest (ROI) chosen consistent with TMRM-induced mitochondrial fluorescence, or the autofluorescent mitochondria of the astrocytes. In some cases, the images were expanded and regions of interest were also chosen from the surrounding cytosol. The average pixel intensity was determined for each ROI, and the emission ratio of the 525:700 nm images was then calculated. In some cases, the emission ratio of 600:700 nm was calculated. […] For the TMRM channel, the average pixel intensity was recorded. […]

[5] = system: mitochondrial membrane E field in DITNC astrocytes; test: Sequential CCCP depolarizations in astrocytes monitored by NOVs; type: cell-based; settings: 5 μM CCCP, second dose at 46 minutes
Method: Repeat depolarizations were performed as follows. Astrocytes were prepared as above, but the cell chamber only contained 500 μL of HBSS with HEPES. 500 μL CCCP (5 μM final concentration in chamber) was added and images were collected every minute for the first 10 minutes after the addition of CCCP and every 5 minutes thereafter until the 45 minute time point. Then 500 μL of the CCCP solution was added at the 46 minute time point, and the images taken every minute until the 55 minute time point and every five minutes until the 90 minute time point.
Image analysis was performed as follows. Images were transferred to the MetaMorph image analysis package and regions of interest chosen consistent with TMRM-induced mitochondrial fluorescence, or the autofluorescent mitochondria of the astrocytes. In some cases, the images were expanded and regions of interest (ROI) were also chosen from the surrounding cytosol. The average pixel intensity ratio of the 600 nm image versus the 700 nm image was then calculated. For the TMRM channel, the average pixel intensity was recorded.
Sequential depolarizations were performed as follows. Astrocytes with autofluorescent mitochondria (to eliminate the need for TMRM) were incubated with NOVs, transferred to a confocal microscope, and the mitochondrial membrane depolarized with the use of CCCP. […]

DITNC astrocytes = test: Uptake, localization and tolerability of E-PEBBLEs in astrocytes; type: cell-based, rat; settings: same final dye concentration as delivered in the E-PEBBLEs
From the text: Cells were illuminated at 488 nm and the fluorescent images were collected at 600 nm (50 nm band pass), 700 nm (50 nm band pass), and 525 nm (50 nm band pass).
Cell groups that appeared visually robust (i.e., elongate with little or no ruffling or blebbing of the membrane) were used for analysis.

C6 glioma cells = test: Localization, uptake and cytotoxicity of particles in C6 glioma cells; type: cell-based, Rat; settings: same final dye concentration as delivered in the NOV
Method: Mouse C6 glioma cells were plated on to glass cover slips at a concentration of approximately 2.5×10^5 cells/mL. Cells were incubated in DMEM supplemented with 10% FBS and 1% p/s overnight. The media was then removed and replaced with fresh media. NOVs were added to the suspension (125-250 μg particles) and the cells incubated for 30 minutes. The cover slip was rinsed with HBSS containing 10 mmol N-2-Hydroxyethylpiperazine-N′-2-Ethane Sulfonic Acid (HEPES) and placed in a stainless steel cell chamber with 1 mL HBSS containing 10 mmol HEPES. In some cases TMRM dissolved in dimethyl sulfoxide was added to the chamber for a total concentration of 50 nM and the chamber was allowed to equilibrate for 10 minutes. The entire chamber was mounted on the confocal microscope and examined with a 60× objective connected to a Z series motor. One mL of a CCCP solution (total concentration 10 μM and, in some cases, containing 50 nM TMRM) was added to the cell chamber and a timer started. A series of images (1 to 2 μm in thickness) was taken in the vertical plane 15 seconds after addition of the CCCP solution, and then every minute for the first 10 minutes. Images were taken at 5 minute intervals thereafter until the 30 minute time point. Cells were illuminated at 488 nm and the fluorescent images were collected at 600 nm (50 nm band pass) and 700 nm (50 nm band pass) for the first two channels. […]

SMILES | drop in E field from minute 3 to minute 4 [1] [%] | mitochondrial E field at t=4 min after CCCP [1] | overall drop in E field from t=0 min to t=30 min [1] [%] | response of microfilament regions to CCCP [2] | response of mitochondrial regions to CCCP [2] | time for mitochondrial E field to approach zero after addition of CCCP [3] | change of mitochondrial E field after repeated CCCP doses [4] | change of mitochondrial E field after CCCP [5] | fluorescence of cells exposed to free dye in an aqueous solution (uptake) (DITNC astrocytes) | fluorescence of cells exposed to free dye in water (uptake) (C6 glioma cells)
N#CC(C#N)=NNc1cccc(Cl)c1 [CCCP, Carbonyl cyanide 3-chlorophenylhydrazone] | 55 | −1.4×10^6 V/m | 55 | spike at the 10-15 minute time point | normal depolarization | approximately 10 minutes | the E field rapidly decreases, followed by a modest repolarization | decrease in the E field during the first 10 minutes | – | –
CCCCN(CCCC)c1ccc2cc(C=Cc3cc[n+](CCCS(=O)(=O)[O-])cc3)ccc2c1 [free dye, pyridinium, 4-(2-(6-(dibutylamino)-2-naphthalenyl)ethenyl)-1-(3-sulfopropyl)-, hydroxide, inner salt] | – | – | – | – | – | – | – | – | did not fluoresce | did not fluoresce
